# Experimental data as given in PMC8080777, “Discovery, optimization, and evaluation of non-bile acid FXR/TGR5 dual agonists” (Scientific Reports, 2021).
# Tests used:
# GLP-1 = assay: In vivo GLP-1 secretion after glucose challenge; parameters: species or system C57 mice; conditions: for Plasma GLP-1 levels: single oral 100 mg/kg, overnight-fasted C57 mice, 2 g/kg glucose one hour later, blood 15 min after challenge
# Description: (§1) Measurement of GLP-1 secretion: To measure plasma GLP-1 levels, 100 mg/kg of compounds 20p and 20q were administered orally to overnight-fasted C57 mice (n = 5 animals/group). One hour later, all mice were challenged with 2 g/kg glucose, and blood samples were collected after 15 min of glucose challenge test. Plasma GLP-1 levels were measured using the GLP-1 ELISA Kit Wako, High Sensitive (FUJIFILM Wako Pure Chemical Corporation, Osaka city, Osaka, Japan)[56].
# Amersham Place Little Chalfont Buckinghamshire, HP7 9NA UK), and cDNA was synthesized using ReverTra Ace qPCR RT Master Mix (Toyobo Co., Ltd., Osaka City, Osaka, Japan). Real-time PCR was performed using a CFX96 Touch Real-Time PCR Analysis System (CFX Manager, Bio-Rad, 1000 Alfred Nobel Drive, Hercules, CA, USA), and the mRNA expression levels of SHP and CYP7A1, the target gene s of FXR, were measured using the intercalator […]
# In vivo assay protocol (GLP-1)
# as §1, with “overnight -fasted” for “overnight-fasted”, “(n=5” for “(n = 5”, “Japan)[56].” left out
# In vivo assay protocol (OGTT test)
# To measure blood glucose levels, 100 mg/kg of test compounds 20p and 20q or vehicle were administered orally to overnight-fasted C57 mice (n=5 mice/group, control; n=10). One hour later, all mice were challenged with 2 g/kg glucose, and blood samples were collected after 15 min of glucose loading. The blood glucose levels were measured using LabAssay Glucose (FUJIFILM Wako Pure Chemical Corporation, Osaka City, Osaka, Japan).5
# In vivo in-house animal guidelines
# Study protocols were designed and refined by taking reduction of animal use into consideration. […]
# TGR5 = target: T1, TGR5 (Homo sapiens, UniProt Q8TDU6); assay: TGR5 cAMP assay in CHO cells transfected with TGR5 (cAMP Hunter eXpress, Discover X); format: cell-based; conditions: for TGR5 Efficacy (%) (1 µM) / TGR5 Efficacy (%) (10 µM): % vs INT-767 10 µM as 100%; for EC50: 4 parameter logistic fit
# T1 construct: host or cells: CHO cells
# T1 sequence (Q8TDU6 1-330): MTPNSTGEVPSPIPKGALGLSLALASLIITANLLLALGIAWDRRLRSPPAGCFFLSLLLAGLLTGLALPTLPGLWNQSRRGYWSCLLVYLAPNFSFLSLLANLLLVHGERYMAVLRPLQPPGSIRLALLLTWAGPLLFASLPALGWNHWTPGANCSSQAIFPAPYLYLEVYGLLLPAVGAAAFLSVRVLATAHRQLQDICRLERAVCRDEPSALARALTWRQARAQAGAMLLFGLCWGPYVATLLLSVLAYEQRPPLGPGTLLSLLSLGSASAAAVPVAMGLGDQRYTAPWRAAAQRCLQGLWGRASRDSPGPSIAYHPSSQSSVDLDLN
smiles,measurement,setting,value
"COC(=O)/C=C/c1cccc(N(Cc2ccc(-c3ccc(N(C)C)cc3)cc2)C(=O)C2CCCCC2)c1 [Compound 7, Fexaramine, reference compound]",Serum GLP-1,"GLP-1; single dose, wild-type mice",did not increase serum GLP-1
COc1cc(Cl)cc(N(CC23CCC(c4ccc(OC)c(C#N)c4)(CC2)CC3)C(=O)c2ccncc2C)c1 [Compound 20p],TGR5 agonist activity (in words),TGR5,strong dual agonist potencies
same,TGR5 Efficacy (%) (1 µM),TGR5,51.1%
same,TGR5 Efficacy (%) (10 µM),TGR5,62.4%
same,EC50,TGR5,420 nM
same,Plasma GLP-1 levels,GLP-1,significantly increased the plasma levels of GLP-1
COc1ccc(C23CCC(CN(C(=O)c4ccncc4C)c4cc(Cl)cc(Cl)c4)(CC2)CC3)cc1C#N [Compound 20q],TGR5 agonist activity (in words),TGR5,strong dual agonist potencies
same,TGR5 Efficacy (%) (1 µM),TGR5,51.2%
same,TGR5 Efficacy (%) (10 µM),TGR5,80.2%
same,EC50,TGR5,790 nM
same,Plasma GLP-1 levels,GLP-1,significantly increased the plasma levels of GLP-1
